Laboratory results reported in the NIST ThermoML archive (doi:10.1021/je800463k).

Assay: mn = molality of the nth substance listed, in mol/kg
Conditions: 101 kPa, Liquid; for electrical conductivity: Frequency=0.001 MHz, Alternating current cell with electrodes; for speed of sound: Frequency=2 MHz; for mass density: Pycnometric method

O=[N+]([O-])[O-].O=[N+]([O-])[O-].[Mg+2] [magnesium nitrate] + CO
Conditions	electrical conductivity [S/m]	mass density [kg/m3]	speed of sound [m/s]	viscosity [mPa·s]
273.15 K, m1 = 0.0082	0.1095	–	1187.6	0.8298
273.15 K, m1 = 0.0545	0.3036	–	1194.3	0.8885
273.15 K, m1 = 0.0667	0.3337	–	1197.6	0.9109
273.15 K, m1 = 0.1047	0.4393	–	1202.4	0.9548
273.15 K, m1 = 0.2776	0.8097	–	1220.4	1.129
273.15 K, m1 = 0.4024	1.002	–	1228.8	1.336
273.15 K, m1 = 0.4555	1.043	–	1237	1.4
273.15 K, m1 = 0.6276	1.207	–	1253.3	1.836
273.15 K, m1 = 0.782	1.31	–	1270.9	2.128
273.15 K, m1 = 0.881	1.334	–	1274.9	2.18
273.15 K, m1 = 0.9116	1.344	–	1279.9	2.329
273.15 K, m1 = 1.004	1.372	–	1293.4	2.559
273.15 K, m1 = 1.259	1.361	–	1315.8	3.717
273.15 K, m1 = 1.492	1.314	–	1340.4	4.748
273.15 K, m1 = 1.71	1.281	–	1360.5	6.086
273.15 K, m1 = 1.875	1.238	–	1368.6	7.175
278.15 K, m1 = 0.0082	0.1165	–	1171.2	0.7627
278.15 K, m1 = 0.0545	0.321	–	1178.6	0.8108
278.15 K, m1 = 0.0667	0.3538	–	1181.3	0.836
278.15 K, m1 = 0.1047	0.4655	–	1185.8	0.8755
278.15 K, m1 = 0.2776	0.8637	–	1203	1.029
278.15 K, m1 = 0.4024	1.073	–	1214.1	1.213
278.15 K, m1 = 0.4555	1.117	–	1222.1	1.273
278.15 K, m1 = 0.6276	1.3	–	1235.6	1.732
278.15 K, m1 = 0.782	1.417	–	1254.4	1.905
278.15 K, m1 = 0.881	1.447	–	1257.8	1.938
278.15 K, m1 = 0.9116	1.459	–	1263.2	2.079
278.15 K, m1 = 1.004	1.494	–	1277.2	2.278
278.15 K, m1 = 1.259	1.494	–	1298.8	3.26
278.15 K, m1 = 1.492	1.453	–	1324.8	4.119
278.15 K, m1 = 1.71	1.436	–	1343.7	5.244
278.15 K, m1 = 1.875	1.383	–	1352.5	6.178
283.15 K, m1 = 0.0082	0.1221	–	1158.5	0.7006
283.15 K, m1 = 0.0545	0.3368	–	1163.6	0.7465
283.15 K, m1 = 0.0667	0.3738	–	1164.3	0.775
283.15 K, m1 = 0.1047	0.4908	–	1168.9	0.8049
283.15 K, m1 = 0.2776	0.9168	–	1187.4	0.9437
283.15 K, m1 = 0.4024	1.143	–	1198.4	1.109
283.15 K, m1 = 0.4555	1.192	–	1204.7	1.158
283.15 K, m1 = 0.6276	1.394	–	1219.1	1.562
283.15 K, m1 = 0.782	1.528	–	1238.3	1.719
283.15 K, m1 = 0.881	1.561	–	1241	1.743
283.15 K, m1 = 0.9116	1.573	–	1247.8	1.866
283.15 K, m1 = 1.004	1.618	–	1261.1	2.041
283.15 K, m1 = 1.259	1.632	–	1282.7	2.891
283.15 K, m1 = 1.492	1.597	–	1308.1	3.619
283.15 K, m1 = 1.71	1.59	–	1327.3	4.554
283.15 K, m1 = 1.875	1.538	–	1335.4	5.339
288.15 K, m1 = 0.0082	0.1281	–	1141.9	0.6479
288.15 K, m1 = 0.0545	0.3616	–	1145.7	0.69
288.15 K, m1 = 0.0667	0.393	–	1147.2	0.7149
288.15 K, m1 = 0.1047	0.5164	–	1152.3	0.743
288.15 K, m1 = 0.2776	0.9691	–	1170.8	0.8665
288.15 K, m1 = 0.4024	1.214	–	1182.6	1.016
288.15 K, m1 = 0.4555	1.267	–	1188.5	1.06
288.15 K, m1 = 0.6276	1.489	–	1203	1.408
288.15 K, m1 = 0.782	1.639	–	1221.6	1.556
288.15 K, m1 = 0.881	1.678	–	1225.4	1.575
288.15 K, m1 = 0.9116	1.69	–	1231.2	1.679
288.15 K, m1 = 1.004	1.744	–	1245.4	1.828
288.15 K, m1 = 1.259	1.772	–	1266.8	2.586
288.15 K, m1 = 1.492	1.746	–	1292.2	3.198
288.15 K, m1 = 1.71	1.738	–	1311.9	3.978
288.15 K, m1 = 1.875	1.698	–	1320.1	4.642
293.15 K, m1 = 0.0082	0.1341	–	1123.3	0.6014
293.15 K, m1 = 0.0545	0.3807	–	1129	0.6412
293.15 K, m1 = 0.0667	0.412	–	1130.5	0.6621
293.15 K, m1 = 0.1047	0.5415	–	1134.7	0.6872
293.15 K, m1 = 0.2776	1.021	–	1154.7	0.7989
293.15 K, m1 = 0.4024	1.277	–	1165.8	0.9313
293.15 K, m1 = 0.4555	1.341	–	1172.6	0.9778
293.15 K, m1 = 0.6276	1.584	–	1187.3	1.271
293.15 K, m1 = 0.782	1.752	–	1205.7	1.415
293.15 K, m1 = 0.881	1.797	–	1212	1.429
293.15 K, m1 = 0.9116	1.811	–	1215.2	1.517
293.15 K, m1 = 1.004	1.873	–	1229.3	1.65
293.15 K, m1 = 1.259	1.917	–	1250.2	2.306
293.15 K, m1 = 1.492	1.9	–	1275.7	2.833
293.15 K, m1 = 1.71	1.902	–	1295.5	3.5
293.15 K, m1 = 1.875	1.866	–	1304	4.058
298.15 K, m1 = 0.0082	0.1401	–	1108.5	0.5595
298.15 K, m1 = 0.0545	0.3953	–	1115.7	0.5957
298.15 K, m1 = 0.0667	0.4305	–	1113.6	0.6148
298.15 K, m1 = 0.1047	0.5657	–	1118.5	0.6361
298.15 K, m1 = 0.2776	1.073	–	1138.2	0.7381
298.15 K, m1 = 0.4024	1.343	–	1149	0.8609
298.15 K, m1 = 0.4555	1.416	–	1155.9	0.8966
298.15 K, m1 = 0.6276	1.68	–	1171.1	1.146
298.15 K, m1 = 0.782	1.866	–	1188.8	1.287
298.15 K, m1 = 0.881	1.918	–	1195.8	1.301
298.15 K, m1 = 0.9116	1.933	–	1198.8	1.369
298.15 K, m1 = 1.004	2.005	–	1212.9	1.491
298.15 K, m1 = 1.259	2.065	–	1232.2	2.078
298.15 K, m1 = 1.492	2.06	–	1259.5	2.541
298.15 K, m1 = 1.71	2.073	–	1279.9	3.094
298.15 K, m1 = 1.875	2.039	–	1288.1	3.556
300.6 K, m1 = 0.1047	–	798.24	–	–
300.7 K, m1 = 0.6276	–	850.07	–	–
300.8 K, m1 = 0.881	–	871.54	–	–
301.1 K, m1 = 1.492	–	934.05	–	–
